Where two headings read alike, the source gives them in different places.
Assays:
[1] = target: NDM-1 (Klebsiella pneumoniae, UniProt C7C422); assay: biochemical; assay type: biochemical; conditions: read-out: NDM-1 IC50
[2] = system: Escherichia coli expressing NDM-1 (CLB30016); assay: Antibiotic potentiation activity: synergistic concentration (MITC95) with imipenem, OD600 growth; assay type: cell-based; conditions: for Escherichia coli expressing NDM-1 (CLB 30016) MITC95: concentration giving 95% inhibition of bacterial growth
In short: (§1)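 Imipenem (4 μg/ml final; 1 μg/ml as an option) was combined with compound against isolates diluted 1:100 from saline suspensions into 1.1× CAMHB. Growth was assessed by absorbance at 22–24 h, 35 °C.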

[3] = system: Serratia marcescens expressing IMP-1 (CL5741); assay: as above; assay type: cell-based; conditions: for Serratia marcescens expressing IMP-1 (CL5741) MITC95: concentration giving 95% inhibition of bacterial growth
In short: as §1

[4] = system: Klebsiella pneumoniae expressing VIM-1 (IHMA599644); assay: as above; assay type: cell-based; conditions: for Klebsiella pneumoniae expressing VIM-1 (IHMA 599644) MITC95: concentration giving 95% inhibition of bacterial growth
In short: as §1

[5] = target: IMP-1 (Serratia marcescens, UniProt P52699); assay: biochemical; assay type: biochemical; conditions: read-out: IMP-1 IC50
Chain of IMP-1 (P52699 whole entry, looked up): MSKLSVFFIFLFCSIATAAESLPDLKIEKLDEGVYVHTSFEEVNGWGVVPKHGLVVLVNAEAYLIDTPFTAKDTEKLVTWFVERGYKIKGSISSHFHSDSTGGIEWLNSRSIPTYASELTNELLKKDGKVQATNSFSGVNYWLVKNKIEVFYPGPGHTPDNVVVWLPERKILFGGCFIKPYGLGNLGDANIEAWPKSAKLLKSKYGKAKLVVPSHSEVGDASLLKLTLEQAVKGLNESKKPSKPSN

[6] = target: VIM-1 (Pseudomonas aeruginosa (strain ATCC 15692 / DSM 22644 / CIP 104116 / JCM 14847 / LMG 12228 / 1C / PRS 101 / PAO1), UniProt A0A0F7KYQ8); assay: Enzyme activity: determination of IC50, fluorescence assay with CCF2-FA substrate (VIM-1); assay type: biochemical
[7] = NDM-1 enzyme, CCF2-FA fluorescence assay
[8] = Escherichia coli expressing NDM-1 (CLB30016), 95% growth inhibition
[9] = Serratia marcescens expressing IMP-1 (CL5741), 95% growth inhibition
[10] = Klebsiella pneumoniae expressing VIM-1 (IHMA599644), 95% growth inhibition
[11] = IMP-1 enzyme, CCF2-FA fluorescence assay
[12] = VIM-1 enzyme, CCF2-FA fluorescence assay, read-out: VIM-1 IC50
[13] = NDM-1 enzyme, CCF2-FA substrate
[14] = (CLB30016, NDM-1), 95% growth inhibition
[15] = Serratia marcescens CL5741 (IMP-1), 95% growth inhibition
[16] = Klebsiella pneumoniae IHMA599644 (VIM-1), 95% growth inhibition
[17] = IMP-1 enzyme, CCF2-FA substrate
[18] = VIM-1 IC50, VIM-1 enzyme, CCF2-FA substrate
[19] = fluorescence assay with CCF2-FA substrate
[20] = VIM-1 IC50, fluorescence assay with CCF2-FA substrate
[21] = VIM-1 enzyme, CCF2-FA substrate, read-out: VIM-1 IC50
[22] = CLB30016 (NDM-1), 95% inhibition of bacterial growth
[23] = CL5741 (IMP-1), 95% inhibition of bacterial growth
[24] = IHMA599644 (VIM-1), 95% inhibition of bacterial growth
[25] = fluorescence assay with CCF2-FA substrate, read-out: VIM-1 IC50

Chain of NDM-1 (C7C422 whole entry, looked up, species assumed): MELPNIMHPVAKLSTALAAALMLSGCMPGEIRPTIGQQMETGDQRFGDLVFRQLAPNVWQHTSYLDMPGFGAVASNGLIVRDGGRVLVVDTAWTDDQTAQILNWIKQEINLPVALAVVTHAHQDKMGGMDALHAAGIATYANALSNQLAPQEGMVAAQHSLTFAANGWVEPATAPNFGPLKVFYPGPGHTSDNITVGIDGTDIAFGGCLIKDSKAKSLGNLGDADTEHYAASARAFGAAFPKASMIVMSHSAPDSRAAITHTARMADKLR

SMILES | IC50 [1, 13] | Escherichia coli MITC95 [2, 14] | Serratia marcescens MITC95 [3, 15] | Klebsiella pneumoniae MITC95 [4, 16] | IC50 [5, 17] | IC50 [1, 19] | IC50 [5, 19] | further results
NC(=O)c1ccc2cc(-c3cccc(S(N)(=O)=O)c3-c3nn[nH]n3)ccc2n1 [Example 288, 6-(3-sulfamoyl-2-(2H-tetrazol-5-yl)phenyl)quinoline-2-carboxamide] |  |  |  |  |  |  |  | IC50 [1, 7]: 1.31 nM; Escherichia coli MITC95 [2, 8]: 1.563 µM; Serratia marcescens MITC95 [3, 9]: 9.375 µM; Klebsiella pneumoniae MITC95 [4, 10]: 75 µM; IC50 [5, 11]: 88.9 nM; IC50 [6, 12]: 9.78 nM
NS(=O)(=O)c1cccc(-c2ccc(N3CCC3CO)nc2)c1-c1nnn[nH]1 (stereo in doubt) [Example 636, 3-[6-[(2S)-2-(hydroxymethyl)azetidin-1-yl]-3-pyridyl]-2-(1H-tetrazol-5-yl)benzenesulfonamide] | 1.54 nM | 0.3906 µM | 4.688 µM | >200 µM | 37.2 nM |  |  | IC50 [6, 18]: 88.9 nM
Cc1cc2nccn2cc1-c1cccc(S(N)(=O)=O)c1-c1nnn[nH]1 [Example 115, 3-(7-methylimidazo[1,2-a]pyridin-6-yl)-2-(1H-tetrazol-5-yl)benzenesulfonamide] |  |  |  |  |  | 7.81 nM | 544 nM | Escherichia coli expressing NDM-1 (CLB 30016) MITC95 [2]: 0.25 µM; Serratia marcescens expressing IMP-1 (CL5741) MITC95 [3]: 18.75 µM; Klebsiella pneumoniae expressing VIM-1 (IHMA 599644) MITC95 [4]: 37.5 µM; IC50 [6, 20]: 54.4 nM
NCCN1CCC(Cc2ccc(-c3ccc(C4CNC4)cc3)c(-c3nn[nH]n3)c2S(N)(=O)=O)CC1 [Example 606, 6-[[1-(2-aminoethyl)-4-piperidyl]methyl]-3-[4-(azetidin-3-yl)phenyl]-2-(2H-tetrazol-5-yl)benzenesulfonamide] | 17.7 nM | 0.7813 µM | 3.125 µM | 1.563 µM | 51.4 nM |  |  | IC50 [6, 18]: 1.12 nM
Cn1cncc1C1CCN(c2ccnc(S(N)(=O)=O)c2-c2nnn[nH]2)CC1 [Example 230, 4-[4-(1-methyl-1H-imidazol-5-yl)piperidin-1-yl]-3-(1H-tetrazol-5-yl)pyridine-2-sulfonamide] |  |  |  |  |  | 206 nM | 797 nM | Escherichia coli expressing NDM-1 (CLB 30016) MITC95 [2]: 1.563 µM; Serratia marcescens expressing IMP-1 (CL5741) MITC95 [3]: 18.75 µM; Klebsiella pneumoniae expressing VIM-1 (IHMA 599644) MITC95 [4]: 37.5 µM; IC50 [6, 20]: 164 nM
NS(=O)(=O)c1cccc(-c2ccc(CNC3CC(F)(F)C3)cc2)c1-c1nnn[nH]1 [Example 339, 4′-(((3,3-difluorocyclobutyl)amino)methyl)-2-(1H-tetrazol-5-yl)-[1,1′-biphenyl]-3-sulfonamide] |  |  |  |  |  |  |  | IC50 [1, 7]: 4.54 nM; Escherichia coli MITC95 [2, 8]: 0.5859 µM; Serratia marcescens MITC95 [3, 9]: 1.563 µM; Klebsiella pneumoniae MITC95 [4, 10]: >200 µM; IC50 [5, 11]: 42.3 nM; IC50 [6, 12]: 611 nM
NS(=O)(=O)c1c(CC2CCNCC2)ccc(-c2ccc(C3CNC3)cc2)c1-c1nnn[nH]1 [Example 597, 3-[4-(azetidin-3-yl)phenyl]-6-(4-piperidylmethyl)-2-(1H-tetrazol-5-yl)benzenesulfonamide] | 8.86 nM | 1.563 µM | 3.125 µM | 1.563 µM | 46 nM |  |  | IC50 [6, 21]: 1.24 nM
Nc1ncc(-c2ccc(-c3cccc4sc(N)nc34)c(-c3nn[nH]n3)c2S(N)(=O)=O)s1 [Example 536, 3-(2-Aminobenzo[d]thiazol-4-yl)-6-(2-aminothiazol-5-yl)-2-(2H-tetrazol-5-yl)benzenesulfonamide] | 2.71 nM | 6.25 µM | 50 µM | 25 µM | 39.4 nM |  |  | IC50 [6, 21]: 4.12 nM
NS(=O)(=O)c1c(C(F)(F)F)ccc(C2CCn3cncc3C2)c1-c1nnn[nH]1 (stereo not drawn) [Example 494, 3-(5,6,7,8-Tetrahydroimidazo[1,5-a]pyridin-7-yl)-2-(1H-tetrazol-5-yl)-6-(trifluoromethyl)benzenesulfonamide] | 4.43 nM | 0.3906 µM | 1.172 µM | 1.563 µM | 13 nM |  |  | IC50 [6, 21]: 0.427 nM
CC(C)(O)C1CN(c2ccc(-c3cccc(S(N)(=O)=O)c3-c3nnn[nH]3)cn2)C1 [Example 624, 3-[6-[3-(1-hydroxy-1-methyl-ethyl)azetidin-1-yl]-3-pyridyl]-2-(1H-tetrazol-5-yl)benzenesulfonamide] | 10.2 nM | 7.813 µM | 12.5 µM | >200 µM | 86.2 nM |  |  | IC50 [6, 21]: 559 nM
CNCCN(C)c1ccc(-c2cccc(S(N)(=O)=O)c2-c2nnn[nH]2)cn1 [Example 637, 3-[6-[methyl-[2-(methylamino)ethyl]amino]-3-pyridyl]-2-(1H-tetrazol-5-yl)benzenesulfonamide] | 52 nM | 2.344 µM | 25 µM | 50 µM | 925 nM |  |  | IC50 [6, 18]: 453 nM
NC1CC(N[C@H]2CC[C@H](c3ccc(C(F)(F)F)c(S(N)(=O)=O)c3-c3nnn[nH]3)CC2)C1 (stereo partly drawn) [Example 702, 3-{4-[(3-aminocyclobutyl)amino]cyclohexyl}-2-(1H-tetrazol-5-yl)-6-(trifluoromethyl)benzene sulfonamide] | 4.02 nM | 0.7813 µM | 3.125 µM | 1.563 µM | 25.2 nM |  |  | IC50 [6, 18]: 2.25 nM
NS(=O)(=O)c1c(C(F)(F)F)ccc(-c2ccc(C3CN(CC4CNC4)C3)cc2)c1-c1nnn[nH]1 [Example 800, 4′-[1-(azetidin-3-ylmethyl)azetidin-3-yl]-2-(1H-tetrazol-5-yl)-4-(trifluoromethyl)biphenyl-3-sulfonamide] |  |  |  |  |  | 2.68 nM | 5.14 nM | Escherichia coli MITC95 [2, 22]: 0.7813 µM; Serratia marcescens MITC95 [3, 23]: 6.25 µM; Klebsiella pneumoniae MITC95 [4, 24]: 12.5 µM; IC50 [6, 25]: 14.3 nM
NS(=O)(=O)c1cccc(C2=CCOCC2)c1-c1nnn[nH]1 [Example 140, 3-(3,6-dihydro-2H-pyran-4-yl)-2-(1H-tetrazol-5-yl)benzenesulfonamide] |  |  |  |  |  | 7.68 nM | 160 nM | Escherichia coli expressing NDM-1 (CLB 30016) MITC95 [2]: 0.5859 µM; Serratia marcescens expressing IMP-1 (CL5741) MITC95 [3]: 6.25 µM; Klebsiella pneumoniae expressing VIM-1 (IHMA 599644) MITC95 [4]: 50 µM; IC50 [6, 25]: 388 nM
NC1(C2CCN(c3ccc(C(F)(F)F)c(S(N)(=O)=O)c3-c3nnn[nH]3)C2)CC1 (stereo not drawn) [Example 766, 3-[3-(1-aminocyclopropyl)pyrrolidin-1-yl]-2-(1H-tetrazol-5-yl)-6-(trifluoromethyl) benzenesulfonamide] |  |  |  |  |  | 134 nM | 120 nM | Escherichia coli MITC95 [2, 22]: 25 µM; Serratia marcescens MITC95 [3, 23]: 25 µM; Klebsiella pneumoniae MITC95 [4, 24]: 12.5 µM; IC50 [6, 20]: 8.52 nM
NS(=O)(=O)c1cccc(-c2cnc(NCCO)nc2)c1-c1nnn[nH]1 [Example 125, 3-(2-((2-hydroxyethyl)amino)pyrimidin-5-yl)-2-(1H-tetrazol-5-yl)benzenesulfonamide] |  |  |  |  |  | 6.55 nM | 326 nM | Escherichia coli expressing NDM-1 (CLB 30016) MITC95 [2]: 1.953 µM; Serratia marcescens expressing IMP-1 (CL5741) MITC95 [3]: 9.375 µM; Klebsiella pneumoniae expressing VIM-1 (IHMA 599644) MITC95 [4]: 25 µM; IC50 [6, 20]: 172 nM
NS(=O)(=O)c1c(C(F)(F)F)ccc(-c2cccc3c2CCNC3)c1-c1nn[nH]n1 [Example 517, 3-(1,2,3,4-Tetrahydroisoquinolin-5-yl)-2-(2H-tetrazol-5-yl)-6-(trifluoromethyl)benzenesulfonamide] | 5.88 nM | 3.125 µM | 3.125 µM | 1.563 µM | 37.2 nM |  |  | IC50 [6, 21]: 0.937 nM
NS(=O)(=O)c1c(C(F)(F)F)ccc(-c2cccn3ncnc23)c1-c1nnn[nH]1 [Example 840, 3-([1,2,4]triazolo[1,5-a]pyridin-8-yl)-2-(1H-tetrazol-5-yl)-6-(trifluoromethyl)benzenesulfonamide] |  |  |  |  |  | 2.49 nM | 14.1 nM | Escherichia coli MITC95 [2, 22]: 3.125 µM; Serratia marcescens MITC95 [3, 23]: 12.5 µM; Klebsiella pneumoniae MITC95 [4, 24]: 6.25 µM; IC50 [6, 25]: 0.46 nM

From patent US9708336B2, “Metallo-beta-lactamase inhibitors” (priority 2014, dated 2017)
